Source: ChEMBL document CHEMBL5465560, “Selectivity Literature for EUbOPEN Chemogenomic Library” (2024)
Values belong to the compound of their own block, whether it stands above or below them.

How the values were obtained:
[1] = biological target: Type-1 angiotensin II receptor (Homo sapiens) (UniProt P30556); test: Selectivity interaction (Eurofins CEREP Diversity Profile (receptors and ion channels)) EUB0000279b AGTR1; conditions: at 10 µM
[2] = biological target: T1, Atypical kinase COQ8B, mitochondrial (Homo sapiens) (UniProt Q96D53); test: Selectivity interaction (KinomeScan (DiscoverX)) EUB0000655a ADCK4; conditions: at 10 µM
T1 sequence (whole entry): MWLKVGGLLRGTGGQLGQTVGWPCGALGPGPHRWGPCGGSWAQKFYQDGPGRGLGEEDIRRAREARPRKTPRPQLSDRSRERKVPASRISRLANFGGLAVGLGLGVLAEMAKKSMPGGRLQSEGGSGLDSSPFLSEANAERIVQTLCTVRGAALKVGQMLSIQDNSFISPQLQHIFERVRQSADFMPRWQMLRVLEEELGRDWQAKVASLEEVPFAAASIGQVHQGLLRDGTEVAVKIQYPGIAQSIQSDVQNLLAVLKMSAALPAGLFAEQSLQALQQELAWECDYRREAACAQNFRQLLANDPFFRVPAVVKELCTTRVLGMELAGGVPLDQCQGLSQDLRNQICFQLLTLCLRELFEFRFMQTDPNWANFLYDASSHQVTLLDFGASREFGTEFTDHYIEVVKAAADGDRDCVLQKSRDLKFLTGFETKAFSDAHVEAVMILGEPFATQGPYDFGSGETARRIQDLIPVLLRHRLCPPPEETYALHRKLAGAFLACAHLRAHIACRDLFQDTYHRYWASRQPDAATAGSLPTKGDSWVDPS

[3] = biological target: Serine/threonine-protein kinase pim-3 (Homo sapiens) (UniProt Q86V86); test: Selectivity interaction (KinomeScan (DiscoverX)) EUB0000655a PIM3; conditions: at 10 µM
[4] = biological target: Serine/threonine-protein kinase 38-like (Homo sapiens) (UniProt Q9Y2H1); test: Selectivity interaction (KinomeScan (DiscoverX)) EUB0000618a STK38L; conditions: at 10 µM
Sequence of Serine/threonine-protein kinase 38-like (Homo sapiens) (Q9Y2H1 2-464 limits assumed): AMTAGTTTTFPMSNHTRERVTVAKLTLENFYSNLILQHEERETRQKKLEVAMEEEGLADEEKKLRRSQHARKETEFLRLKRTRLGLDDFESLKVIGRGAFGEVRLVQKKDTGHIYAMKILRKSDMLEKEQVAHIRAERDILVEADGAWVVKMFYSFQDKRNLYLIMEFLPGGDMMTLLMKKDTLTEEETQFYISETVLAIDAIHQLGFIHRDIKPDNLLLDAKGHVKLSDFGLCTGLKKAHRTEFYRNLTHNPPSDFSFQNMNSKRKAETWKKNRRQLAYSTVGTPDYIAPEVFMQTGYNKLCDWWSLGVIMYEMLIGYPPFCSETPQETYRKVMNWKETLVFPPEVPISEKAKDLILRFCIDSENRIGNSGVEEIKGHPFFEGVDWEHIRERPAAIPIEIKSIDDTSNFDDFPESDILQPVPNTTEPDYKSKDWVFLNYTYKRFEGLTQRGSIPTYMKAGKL

[5] = biological target: 5'-AMP-activated protein kinase catalytic subunit alpha-1 (Homo sapiens, UniProt Q13131); test: Selectivity interaction (KinomeScan (DiscoverX)) EUB0000045b PRKAA1
Sequence of 5'-AMP-activated protein kinase catalytic subunit alpha-1 (Q13131 whole entry, looked up): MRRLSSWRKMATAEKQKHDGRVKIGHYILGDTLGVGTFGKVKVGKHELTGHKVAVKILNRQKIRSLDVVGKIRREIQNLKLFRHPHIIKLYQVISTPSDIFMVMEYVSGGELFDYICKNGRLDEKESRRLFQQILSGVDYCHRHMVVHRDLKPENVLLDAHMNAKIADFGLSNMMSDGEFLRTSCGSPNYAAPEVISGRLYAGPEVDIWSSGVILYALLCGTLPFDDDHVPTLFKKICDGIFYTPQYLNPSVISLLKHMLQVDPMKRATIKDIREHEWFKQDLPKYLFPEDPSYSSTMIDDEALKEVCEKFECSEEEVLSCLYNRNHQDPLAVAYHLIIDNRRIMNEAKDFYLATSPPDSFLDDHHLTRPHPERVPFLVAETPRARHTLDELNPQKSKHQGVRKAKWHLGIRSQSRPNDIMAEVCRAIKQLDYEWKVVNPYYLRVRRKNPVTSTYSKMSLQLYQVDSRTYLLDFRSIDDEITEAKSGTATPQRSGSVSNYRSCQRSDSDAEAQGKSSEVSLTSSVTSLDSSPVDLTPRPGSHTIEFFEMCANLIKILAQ

[6] = biological target: T2, Serine/threonine-protein kinase D1 (Homo sapiens) (UniProt Q15139); test: Selectivity interaction (Upstate Kinase Profiler service (Millipore)) EUB0000056c PRKD1; conditions: at 1 µM
T2 sequence (whole entry): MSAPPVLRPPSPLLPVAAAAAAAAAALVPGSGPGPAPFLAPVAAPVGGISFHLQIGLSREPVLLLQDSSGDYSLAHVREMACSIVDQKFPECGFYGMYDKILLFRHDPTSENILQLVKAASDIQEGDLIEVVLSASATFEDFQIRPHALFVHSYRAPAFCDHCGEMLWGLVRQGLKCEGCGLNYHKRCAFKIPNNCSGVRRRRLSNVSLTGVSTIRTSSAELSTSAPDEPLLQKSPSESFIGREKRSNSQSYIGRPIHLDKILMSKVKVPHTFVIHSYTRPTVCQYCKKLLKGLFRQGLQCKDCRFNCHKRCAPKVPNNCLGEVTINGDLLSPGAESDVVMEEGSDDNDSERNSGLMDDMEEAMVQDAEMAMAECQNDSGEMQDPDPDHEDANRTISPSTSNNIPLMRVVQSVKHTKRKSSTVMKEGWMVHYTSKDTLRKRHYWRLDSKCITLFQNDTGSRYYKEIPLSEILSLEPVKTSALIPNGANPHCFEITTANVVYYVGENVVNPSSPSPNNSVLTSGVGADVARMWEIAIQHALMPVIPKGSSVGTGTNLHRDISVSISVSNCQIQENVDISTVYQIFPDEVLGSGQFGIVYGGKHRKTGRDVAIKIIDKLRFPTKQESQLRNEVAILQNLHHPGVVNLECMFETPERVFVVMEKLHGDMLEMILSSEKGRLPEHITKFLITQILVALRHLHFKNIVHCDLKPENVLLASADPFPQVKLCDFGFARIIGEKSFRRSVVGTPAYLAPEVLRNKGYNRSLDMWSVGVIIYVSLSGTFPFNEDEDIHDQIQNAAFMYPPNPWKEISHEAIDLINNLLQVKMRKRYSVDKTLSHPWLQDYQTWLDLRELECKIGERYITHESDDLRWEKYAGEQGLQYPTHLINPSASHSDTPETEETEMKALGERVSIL

[7] = biological target: T3, Serine/threonine-protein kinase Sgk3 (Homo sapiens) (UniProt Q96BR1); test: Selectivity interaction (ActivX KiNativ screen (kinase selectivity in THP-1 cell lysates)) EUB0000639a SGK3; assay type: subcellular; conditions: lysate, at 0.04 µM
T3 sequence (whole entry): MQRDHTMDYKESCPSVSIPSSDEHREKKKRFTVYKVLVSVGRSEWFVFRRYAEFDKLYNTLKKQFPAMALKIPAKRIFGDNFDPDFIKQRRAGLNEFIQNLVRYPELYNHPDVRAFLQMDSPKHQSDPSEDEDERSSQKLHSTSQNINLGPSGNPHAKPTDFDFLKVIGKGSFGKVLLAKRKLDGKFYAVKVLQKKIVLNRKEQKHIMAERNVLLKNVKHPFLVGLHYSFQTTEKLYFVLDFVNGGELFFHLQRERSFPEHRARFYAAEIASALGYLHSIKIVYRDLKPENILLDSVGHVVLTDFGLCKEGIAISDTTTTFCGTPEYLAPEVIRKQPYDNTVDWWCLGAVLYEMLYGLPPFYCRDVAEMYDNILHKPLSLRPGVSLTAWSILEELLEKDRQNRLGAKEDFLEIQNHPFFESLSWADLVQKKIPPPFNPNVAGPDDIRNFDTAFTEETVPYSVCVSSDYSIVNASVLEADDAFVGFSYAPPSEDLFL

[8] = biological target: RAC-alpha serine/threonine-protein kinase (Homo sapiens, UniProt P31749)
Sequence of RAC-alpha serine/threonine-protein kinase (P31749 whole entry): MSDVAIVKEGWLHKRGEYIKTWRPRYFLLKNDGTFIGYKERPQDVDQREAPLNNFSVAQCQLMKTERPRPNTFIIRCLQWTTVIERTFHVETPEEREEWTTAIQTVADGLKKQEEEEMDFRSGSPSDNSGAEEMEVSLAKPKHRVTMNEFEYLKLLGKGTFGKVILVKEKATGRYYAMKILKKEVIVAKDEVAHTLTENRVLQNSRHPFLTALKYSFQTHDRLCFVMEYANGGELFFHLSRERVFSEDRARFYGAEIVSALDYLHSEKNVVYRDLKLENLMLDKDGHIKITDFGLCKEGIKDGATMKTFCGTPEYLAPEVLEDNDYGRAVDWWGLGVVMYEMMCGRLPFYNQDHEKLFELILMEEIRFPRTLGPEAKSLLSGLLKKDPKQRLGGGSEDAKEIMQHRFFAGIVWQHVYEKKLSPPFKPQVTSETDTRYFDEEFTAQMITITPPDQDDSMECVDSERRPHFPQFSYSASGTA

[9] = biological target: Tyrosine-protein kinase ABL1 (Homo sapiens, UniProt P00519); test: Selectivity interaction (KinomeScan (DiscoverX)) EUB0001868a ABL1; conditions: at 1 µM
Sequence of Tyrosine-protein kinase ABL1 (P00519 whole entry): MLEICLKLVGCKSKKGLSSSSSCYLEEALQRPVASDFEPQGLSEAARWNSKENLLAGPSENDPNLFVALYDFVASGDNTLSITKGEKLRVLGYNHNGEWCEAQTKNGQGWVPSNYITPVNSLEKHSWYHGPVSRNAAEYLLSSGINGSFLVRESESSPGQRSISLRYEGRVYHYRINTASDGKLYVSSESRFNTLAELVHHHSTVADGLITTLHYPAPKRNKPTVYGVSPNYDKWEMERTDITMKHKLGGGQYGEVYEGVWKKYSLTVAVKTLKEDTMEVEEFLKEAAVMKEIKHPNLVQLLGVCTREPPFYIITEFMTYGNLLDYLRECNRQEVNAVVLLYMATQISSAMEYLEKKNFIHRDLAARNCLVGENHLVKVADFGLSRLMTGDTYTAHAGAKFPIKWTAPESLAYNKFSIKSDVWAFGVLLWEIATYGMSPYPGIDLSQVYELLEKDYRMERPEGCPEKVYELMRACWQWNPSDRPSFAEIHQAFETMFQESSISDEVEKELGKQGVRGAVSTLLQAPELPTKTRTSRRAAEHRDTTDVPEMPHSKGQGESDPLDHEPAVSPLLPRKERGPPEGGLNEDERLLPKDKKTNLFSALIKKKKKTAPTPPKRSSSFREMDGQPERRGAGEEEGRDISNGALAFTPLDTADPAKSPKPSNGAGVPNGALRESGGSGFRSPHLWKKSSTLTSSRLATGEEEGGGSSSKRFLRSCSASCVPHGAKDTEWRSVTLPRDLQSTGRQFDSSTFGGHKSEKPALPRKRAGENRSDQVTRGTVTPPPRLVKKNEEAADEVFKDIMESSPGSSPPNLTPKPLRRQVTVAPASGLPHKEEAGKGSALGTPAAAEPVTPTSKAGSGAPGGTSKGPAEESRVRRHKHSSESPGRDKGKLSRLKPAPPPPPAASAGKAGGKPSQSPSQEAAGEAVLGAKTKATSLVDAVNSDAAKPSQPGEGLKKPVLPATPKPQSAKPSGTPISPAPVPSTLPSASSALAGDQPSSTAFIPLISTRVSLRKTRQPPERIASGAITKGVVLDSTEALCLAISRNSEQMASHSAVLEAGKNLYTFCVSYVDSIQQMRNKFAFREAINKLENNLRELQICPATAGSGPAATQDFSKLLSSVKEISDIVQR

Sequence of Type-1 angiotensin II receptor (Homo sapiens) (P30556 whole entry): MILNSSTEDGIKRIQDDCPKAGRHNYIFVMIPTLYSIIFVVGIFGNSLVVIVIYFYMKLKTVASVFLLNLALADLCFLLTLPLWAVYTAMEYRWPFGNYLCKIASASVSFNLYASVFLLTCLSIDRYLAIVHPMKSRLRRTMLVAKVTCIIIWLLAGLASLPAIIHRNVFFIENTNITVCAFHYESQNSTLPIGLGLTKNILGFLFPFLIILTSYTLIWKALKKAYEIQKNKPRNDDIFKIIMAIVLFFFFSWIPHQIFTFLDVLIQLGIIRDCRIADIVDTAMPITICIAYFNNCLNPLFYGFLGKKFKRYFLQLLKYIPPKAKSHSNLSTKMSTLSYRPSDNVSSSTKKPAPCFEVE

SMILES: CN(C)CCOc1ccc(-c2nc(-c3ccncc3)c(-c3ccc4c(c3)CC/C4=N\O)[nH]2)cc1
% of control [2]: 45%
% of control [3]: 88%

SMILES: O[C@H]1CC[C@H](Nc2ncc3nc(Nc4c(F)cc(F)cc4F)n([C@H]4CCOC4)c3n2)CC1
% of control [4]: 100%

SMILES: C=CC(=O)Nc1cc(-n2c(=O)ccc3cnc4ccc(-c5ccc(NS(C)(=O)=O)cc5)cc4c32)ccc1C
% of control ([5]; at 1 µM): 100%
% of control ([5]; at 10 µM): 100%

SMILES: CC[C@@H]1[C@H](F)C(=O)N[C@@H]1COc1nccc2cc(C(N)=O)c(OC)cc12 [ZIMLOVISERTIB]
% of inhibition [7]: 3.1%

Second part, the compound after the results:

% of control [1]: 91%
SMILES: CC(=O)c1cc(-c2ccccc2OCC2CC2)c2ncccn12

% of inhibition [6]: 19%
SMILES: Cc1ccc(-c2ccc3c(ccc4sc5c(c43)NC[C@@H](C)NC5=O)n2)cn1

IC50 [8]: > 10 µM
SMILES: CCc1cccc(CC)c1NC(=O)c1nn(C)c2c1CCc1cnc(Nc3ccc(C(=O)NC4CCN(C)CC4)cc3OC(F)(F)F)nc1-2

% of control [9]: 21%
SMILES: Cc1cc(-c2ccnc(Nc3cnn(C)c3)n2)ccc1CNC(=O)N1CC(OC(C)C)C1
